Assay results as given in PMC10758121, “Miconazole-like Scaffold is a Promising Lead for Naegleria fowleri-Specific CYP51 Inhibitors” (Journal of Medicinal Chemistry, 2023).
Like-named read-outs stand apart in the source and are kept apart here.

Experiments:
[1] = system: N. fowleri European KUL strain; experiment: Primary phenotypic organism-based screen at 10 μM (384-well); type: cell-based; conditions: Naegleria fowleri
[2] = target: NfCYP51 (Naegleria fowleri, UniProt A0A2H4A2U9); experiment: biochemical; type: binding
[3] = in vivo; conditions: female, C57BL/6, mouse, ip, 40 mg/kg
Method: All mice were maintained on a 12 h light/dark cycle in a temperature-controlled environment with access to food and water ad libitum. […] Mice were sacrificed 1 h following the drug administration, and blood and brain samples were collected. Blood (100 μL) was quickly added with 5-fold H2O/CH3CN 8:2, centrifugated to 2500 rpm for 15 min, and plasma was collected. Brain was homogenized in 0.5 mL of distilled water and added with 2 mL of CH3CN. Thus, homogenates were centrifugated to 2500 rpm for 15 min and the supernatants were collected. Plasma and brain supernatants were stored at −20 °C until analysis.
All experiments involving animals were carried out according to Sapienza University’s Ethics Committee, approval code 890/2021-PR, approved on 17 November 2021. Animal care followed the IASP and European Community (EC L358/1, 18/12/86) guidelines on using and protecting animals in experimental research. Eight week-old female C57BL/6 mice were used for the experiments (Charles River, Lecco, Italy).
The targeted analysis was performed by a Waters system composed of a 1525 μ HPLC (Milford, MA, USA), coupled with a Quattro Micro Tandem MS/MS with an ESI source (Micromass, Manchester UK), using a Supelco Ascentis Express C18 (15 cm × 2.1 mm) 2.7 μm analytical column, A (deionized water/formic acid 0.02%) and B (acetonitrile/formic acid 0.02%) as mobile phase, with the following optimized elution binary gradient with linear interpolation: 0–1 min, 30% B; 1–16 min, 45% B; 16–17 min, 45% B; 17–18 min, 30% B; 18–38 min, 30% B to equilibrate the column, flow rate 0.20 mL min^–1. […] Data acquisition, data handling, and instrument control were performed by MassLynx Software 4.1 v (Data Handling System for Windows, Micromass, UK).
Calibration curves were calculated with equal weighted least-squares linear regression analysis of the MRM peak area against the standard nominal concentration. […] The matrix effect (ME) for each compound, in brain (B) and in plasma (P), was evaluated by comparing the matrix-matching calibration curve (2.5, 10, 25, and 50 ng mL^–1) with the corresponding calibration curve.[65]
The biological samples were appropriately diluted with the mobile phase (A:B, 70:30, v:v), filtered at 0.22 μm, and analyzed in triplicate (25 μL injected).

[4] = system: N. fowleri European KUL strain; experiment: Naegleria cell-based assay, dose–response (CellTiter-Glo viability, 48 h)
Method: The compounds were screened against N. fowleri European KUL strain axenically cultured in Nelson’s medium supplemented with 10% fetal bovine serum at 37 °C.[59] The screening assay in 96- and 384-well formats (Z’-value of 0.95 ± 0.1) was performed as described elsewhere.[9] All the experiments were performed using trophozoites harvested during the logarithmic phase of growth.[60] The primary screen was performed in duplicate at 10 μM in a 384-well format (2,500 amoebae/well). The dose–response curves were generated in triplicate for the follow up compounds by serial dilution of compounds from 50 to 0.39 μM in a 96-well plate with 10,000 amoebae/well. Assay plates were incubated for 48 h at 37 °C, and cell viability was determined by a CellTiter-Glo Luminescent Cell Viability Assay.[9],[58]

[5] = system: N. fowleri European KUL strain; conditions: amoebicidal effect; cited from earlier work
[6] = system: Naegleria; conditions: mouse model of PAM, 20 mg/kg dose; cited from earlier work
[7] = cited from earlier work
[8] = Single-dose PK experiment of 2a; conditions: for concentration at 30 min: intraperitoneal, 20 mg/kg
[9] = 10 µM, supplement CSV, read-out: % Inhibition at 10 µM against N. fowleri KUL strain
[10] = Table S1, mean of two biological duplicates, read-out: % Inhibition at 10 µM
[11] = 0.5 μM NfCYP51, inhibitor 0.025–0.5 μM, ≤ values estimated from linear dependence of binding, read-out: KD
[12] = average brain distribution coefficient (brain/plasma ratio)
[13] = concentration for 50% growth inhibition from dose–response curves, triplicate, axenically cultured N. fowleri trophozoites

NfCYP51, sequence (A0A2H4A2U9 entry or part of it): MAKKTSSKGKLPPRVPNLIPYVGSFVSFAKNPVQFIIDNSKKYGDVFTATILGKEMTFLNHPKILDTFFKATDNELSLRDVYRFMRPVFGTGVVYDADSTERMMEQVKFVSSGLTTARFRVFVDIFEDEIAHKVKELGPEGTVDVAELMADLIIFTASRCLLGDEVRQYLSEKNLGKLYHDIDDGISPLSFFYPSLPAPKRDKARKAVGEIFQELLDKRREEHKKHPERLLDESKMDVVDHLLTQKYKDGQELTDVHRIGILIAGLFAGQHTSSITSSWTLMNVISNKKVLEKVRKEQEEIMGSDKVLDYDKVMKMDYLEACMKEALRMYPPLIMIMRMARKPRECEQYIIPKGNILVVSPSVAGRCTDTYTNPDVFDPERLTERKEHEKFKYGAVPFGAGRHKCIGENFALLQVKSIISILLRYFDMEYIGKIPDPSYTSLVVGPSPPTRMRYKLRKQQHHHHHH

Structure (SMILES)	inhibition at 10 µM [1, 9]	inhibition at 10 µM [1, 10]	Kd [2, 11]	EC50 [4, 13]	also measured
COc1ccc(CC(c2ccc(OC)cc2)n2ccnc2)cc1 (centres unmarked) [Compound 2e]	49.5 ± 6.4%	49.5 ± 6.4%			
OC(Cn1cncn1)(Cn1cncn1)c1ccc(F)cc1F [Fluconazole, fluconazole, reference compound]			141 ± 21 nM		
FC(F)(F)c1cccc(CO[C@H](Cn2ccnc2)c2ccc(Cl)cc2Cl)c1 [Compound 9b, (S)-1-(2-(2,4-Dichlorophenyl)-2-((3-(trifluoromethyl)benzyl)oxy)ethyl)-1H-imidazole]			≤ 5 nM	1500 ± 20 nM	average brain distribution coefficient (brain/plasma ratio) ([3]; 1 h): ~1; brain/plasma (B/P) ([3]; 1 h): 1.14; Kp at 1 h [3, 12]: 1.02 ± 0.12; Kp at 1 h ([3]; brain/plasma (B/P)): 0.89
COc1ccc([C@@H](Cn2ccnc2)OC(=O)c2cccc(C(F)(F)F)c2)cc1 [Compound 3b, (S)-2-(1H-Imidazol-1-yl)-1-(4-methoxyphenyl)ethyl 3-(Trifluoromethyl)benzoate]				24000 ± 900 nM	EC50 ([4]; supplement CSV): 24800 ± 900 nM
CC[C@@H]([C@H](C)O)n1ncn(-c2ccc(N3CCN(c4ccc(OC[C@@H]5CO[C@@](Cn6cncn6)(c6ccc(F)cc6F)C5)cc4)CC3)cc2)c1=O [Posaconazole]					EC50 [5]: ≤ 10 nM; mice cured [6]: two of six mice cured
Fc1ccc([C@@H](Cn2ccnc2)OCc2cc(Cl)cc(Cl)c2)cc1 [Compound 8b, (S)-1-(2-((3,5-Dichlorobenzyl)oxy)-2-(4-fluorophenyl)ethyl)-1H-imidazole]			7 ± 2 nM	2400 ± 40 nM	brain/plasma (B/P) ([3]; 1 h): 0.35; Kp at 1 h [3, 12]: 0.43 ± 0.08; Kp at 1 h ([3]; brain/plasma (B/P)): 0.51
Clc1ccc(COC(Cn2ccnc2)c2ccc(Cl)cc2Cl)c(Cl)c1 (centres unmarked) [Compound 1, miconazole]					Kd [2]: ≤ 5 nM; elimination half-life [7]: 24 h
O=C(OC(Cn1ccnc1)c1ccc(F)cc1)c1cccc(C(F)(F)F)c1 (centres unmarked) [Compound 2a]	51.5 ± 13.4%	51.5 ± 13.4%	88 ± 4 nM		inhibition at 10 µM ([1]; read-out: % inhibition at 10 μM, 10 μM, N. fowleri KUL strain): ~50%; concentration at 30 min ([8]; brain): 100 ng/g; concentration at 30 min ([8]; plasma): 4 ng/mL
Clc1ccc(-n2ccc(C(c3ccccc3)n3ccnc3)c2)cc1 (centres unmarked) [Compound 2h]	49 ± 9.9%	49 ± 9.9%			
O=C(O[C@H](Cn1cncn1)c1ccc(F)cc1)c1cccc(C(F)(F)F)c1 [Compound 7, (S)-1-(4-Fluorophenyl)-2-(1H-1,2,4-triazol-1-yl)ethyl 3-(Trifluoromethyl)benzoate]			87 ± 10 nM	20600 ± 40 nM	
O=C(O[C@H](Cn1ccnc1)c1ccc(Cl)cc1Cl)c1cccc(C(F)(F)F)c1 [Compound 5b, (S)-1-(2,4-Dichlorophenyl)-2-(1H-imidazol-1-yl)ethyl 3-(Trifluoromethyl)benzoate]			70 ± 2 nM	4300 ± 50 nM	
O=C(OC(Cn1ccnc1)c1ccccc1)c1cccc(C(F)(F)F)c1 (centres unmarked) [Compound 2c]	53.5 ± 6.4%	53.5 ± 6.4%			
O=C(O[C@H](Cn1ccnc1)c1ccc(Cl)cc1Cl)c1ccc(Cl)cc1Cl [Compound 6b, (S)-1-(2,4-Dichlorophenyl)-2-(1H-imidazol-1-yl)ethyl 2,4-Dichlorobenzoate]			≤ 5 nM	2600 ± 30 nM	
CCC(C)n1ncn(-c2ccc(N3CCN(c4ccc(OCC5COC(Cn6cncn6)(c6ccc(Cl)cc6Cl)O5)cc4)CC3)cc2)c1=O (centres unmarked) [itraconazole]					EC50 [5]: ≤ 10 nM
O=C(O)c1cccc(C(F)(F)F)c1 [3-trifluoro benzoic acid]					circulating metabolite of 2a ([8]; after 2a 20 mg/kg intraperitoneally): one of the main circulating metabolites for up to 24 h
COc1ccc(C(Cc2ccc(Cl)cc2)n2ccnc2)cc1 (centres unmarked) [Compound 2f]	54.5 ± 0.7%	54.5 ± 0.7%			
O=C(O[C@@H](Cn1ccnc1)c1ccc(Cl)cc1Cl)c1cccc(C(F)(F)F)c1 [Compound 5a, (R)-1-(2,4-Dichlorophenyl)-2-(1H-imidazol-1-yl)ethyl 3-(Trifluoromethyl)benzoate]			161 ± 8 nM	10200 ± 30 nM	
O=C(Nc1ccc(N2CCN(c3ccc(Cl)cc3)CC2)cc1)OC(Cn1ccnc1)c1ccc(F)cc1 (centres unmarked) [Compound 2d]	66.5 ± 3.5%	66.5 ± 3.5%			
Clc1cc(Cl)cc(CO[C@H](Cn2ccnc2)c2ccc(Cl)cc2Cl)c1 [Compound 10b, (S)-1-(2-((3,5-Dichlorobenzyl)oxy)-2-(2,4-dichlorophenyl)ethyl)-1H-imidazole]			≤ 5 nM	3500 ± 10 nM	
COc1ccc([C@H](Cn2ccnc2)OC(=O)c2cccc(C(F)(F)F)c2)cc1 [Compound 3a, (R)-2-(1H-Imidazol-1-yl)-1-(4-methoxyphenyl)ethyl 3-(Trifluoromethyl)benzoate]					inhibition at 50 µM ([4]; read-out: % inhibition at 50 μM): 69%
Clc1ccc(C(c2ccn(-c3ccc(Cl)cc3)c2)n2ccnc2)cc1 (centres unmarked) [Compound 2g]	47 ± 7.1%	47 ± 7.1%			
O=C(O[C@@H](Cn1ccnc1)c1ccc(F)cc1)c1cc(Cl)cc(Cl)c1 [Compound 4a, (R)-1-(4-Fluorophenyl)-2-(1H-imidazol-1-yl)ethyl 3,5-Dichlorobenzoate]				21500 ± 40 nM	
O=C(O[C@H](Cn1ccnc1)c1ccc(F)cc1)c1cc(Cl)cc(Cl)c1 [Compound 4b, (S)-1-(4-Fluorophenyl)-2-(1H-imidazol-1-yl)ethyl 3,5-Dichlorobenzoate]				4800 ± 50 nM	
COc1ccc(C(Cc2ccc(-n3cccc3)cc2)n2ccnc2)cc1 (centres unmarked) [Compound 2i]	37.5 ± 30.4%	37.5 ± 30.4%			
